Laboratory results published in article PMC6152416, “Pharmacological and Toxicological Screening of Novel Benzimidazole-Morpholine Derivatives as Dual-Acting Inhibitors” (Molecules : A Journal of Synthetic Chemistry and Natural …, 2017).
≈ marks a conversion by molar mass, not a printed value. Like-named read-outs stand apart in the source and are kept apart here.

Experiments:
[1] = tested on: Pseudomona aeuroginosa ATCC 27853; experiment: Antimicrobial broth microdilution (CLSI M07-A9); assay type: cell-based; conditions: Pseudomona aeuroginosa [sic] ATCC 27853
Procedure: Microbiological studies were performed according to CLSI reference M07-A9 broth microdilution method for bacterial strains and EUCAST definitive method EDef 7.1 for Candida species. Synthesized compounds were tested for their in vitro growth inhibitory activity against Escherichia coli ATCC 35218, Escherichia coli ATCC 25922, Staphylococcus aureus, ATCC 25923, Pseudomona aeuroginosa ATCC 27853, Enterococcus faecalis ATCC29212, Klebsiella pneumoniae ATCC700603 Listeria monocytogenes ATCC7644, Candida albicans ATCC90028, Candida glabrata ATCC 90030, Candida krusei ATCC 6258, Candida parapsilosis ATCC 22019.
The cultures were obtained from Mueller-Hinton broth (Difco) for the bacterial strains and the yeasts were maintained in Roswell Park Memorial Institute (RPMI) medium, after an overnight incubation at 37 °C for both. The inocula of the test microorganisms were adjusted to match an equivalent turbidity of a 0.5 McFarland standard, which was determined using a spectrophotometer; the final inoculum size was determined to be 0.5–2.5 × 10^5 cfu/mL for antibacterial and antifungal assays. The tests were carried out for both mediums at pH = 7 and two-fold serial dilutions were applied. The last well on the microplates, which was containing only the inoculated broth, was kept as control, and the last well with no growth of microorganism was recorded to represent the minimum inhibitory concentration (MIC50) in μg/mL. For both of the antibacterial and antifungal assays, the test compounds and reference drugs were firstly dissolved in DMSO, and further dilutions were performed to the desired concentrations of 1000, 500, 250, 125, 62.5, 31.25, 15.6, 7.8, 3.9 and 1.95 μg/mL using Mueller–Hinton broth and RPMI medium. The completed plates were incubated for 24 h, and at the end of the incubation, resazurin (20 µg/mL) was added into each well to control the growth in the wells. Final plates including microorganism strains were incubated for 2 h. MIC50 values were determined using microplate reader at […] wavelengths; MIC50 readings were performed twice for entire compounds. Chloramphenicol and ketoconazole were used as reference drugs.

[2] = target: T1, COX-1 (Ovis aries, UniProt P05979); experiment: Fluorimetric COX-1 inhibition screening kit (BioVision); assay type: biochemical
T1 construct: purchased BioVision (Milpitas, CA, USA) K548-100
Procedure: (§1) Inhibitory potency of the compounds on COX-1 and COX-2 enzymes was determined by using fluorimetric COX-1 and COX-2 inhibition screening kits from BioVision (Milpitas, CA, USA). The experimental protocol as described in the guides provided by the supplier was followed. All of the pipetting were performed using a robotized system to increase speed, accuracy and precision. Fluorescence intensities of the samples were kinetically measured at 25 °C for 5–10 min by monitoring emissions at 587 nm after excitation at 535 nm. Two appropriate points (T1 and T2) in the linear range of the plot were chosen and the corresponding fluorescence values (RFU1 and RFU2) were obtained. The slope for all samples including Enzyme Control (EC) was calculated by dividing the net ΔRFU (RFU2 − RFU1) values by the time ΔT (T2 − T1). Percentage of relative inhibition was calculated by using the following equation:% Relative inhibition = (Slope of EC − Slope of S/Slope of EC) × 100 where S is the term representing the tested compound [51, 52]. […] The IC50 values were calculated using the plots of the enzyme activity against concentrations by applying regression analyses.

[3] = target: T2, COX-2 (Homo sapiens, UniProt P35354); experiment: Fluorimetric COX-2 inhibition screening kit (BioVision); assay type: biochemical
T2 construct: purchased BioVision (Milpitas, CA, USA) K547-100
T2 sequence (P35354 18-604): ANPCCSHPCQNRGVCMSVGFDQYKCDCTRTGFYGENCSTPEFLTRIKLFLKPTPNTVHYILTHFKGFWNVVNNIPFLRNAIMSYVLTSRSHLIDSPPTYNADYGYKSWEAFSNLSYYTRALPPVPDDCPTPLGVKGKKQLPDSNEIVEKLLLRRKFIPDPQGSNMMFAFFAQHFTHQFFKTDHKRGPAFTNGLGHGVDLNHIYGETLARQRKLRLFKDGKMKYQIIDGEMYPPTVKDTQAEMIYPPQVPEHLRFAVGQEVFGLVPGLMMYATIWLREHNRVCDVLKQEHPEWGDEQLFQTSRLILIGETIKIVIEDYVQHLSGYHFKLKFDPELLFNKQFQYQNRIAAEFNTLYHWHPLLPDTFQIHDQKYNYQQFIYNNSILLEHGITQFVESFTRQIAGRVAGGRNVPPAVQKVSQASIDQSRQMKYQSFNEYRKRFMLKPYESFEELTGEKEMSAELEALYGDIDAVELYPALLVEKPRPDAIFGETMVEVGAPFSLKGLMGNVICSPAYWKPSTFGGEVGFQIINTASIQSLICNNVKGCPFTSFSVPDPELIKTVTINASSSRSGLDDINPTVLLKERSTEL
Procedure: as §1

[4] = target: AChE (Homo sapiens, UniProt P22303); assay type: biochemical
Procedure: Inhibition potency of the test compounds against AChE was determined using Ellman’s method. Enzyme solutions were prepared in gelatin solution (1%, w/v), at the concentration of 2.5 units/mL. […] AChE solution (20 µL/well) and test solution (20 µL/well) were added to phosphate buffer solution (140 µL/well, pH 8.0 ± 0.1), and incubated at 25 °C for 5 min. […] The production of the yellow anion was recorded by multimode microplate reader for 10 min at 412 nm. As a control, an identical solution of the enzyme without the inhibitor was processed. The control and the inhibitor readings were corrected with blank-readings. All processes were assayed in four independent determinations.

[5] = target: T3, human recombinant MAO-A (Homo sapiens, UniProt P21397); experiment: MAO inhibition assay (kynuramine, fluorimetric); assay type: biochemical
T3 sequence (P21397 1-527): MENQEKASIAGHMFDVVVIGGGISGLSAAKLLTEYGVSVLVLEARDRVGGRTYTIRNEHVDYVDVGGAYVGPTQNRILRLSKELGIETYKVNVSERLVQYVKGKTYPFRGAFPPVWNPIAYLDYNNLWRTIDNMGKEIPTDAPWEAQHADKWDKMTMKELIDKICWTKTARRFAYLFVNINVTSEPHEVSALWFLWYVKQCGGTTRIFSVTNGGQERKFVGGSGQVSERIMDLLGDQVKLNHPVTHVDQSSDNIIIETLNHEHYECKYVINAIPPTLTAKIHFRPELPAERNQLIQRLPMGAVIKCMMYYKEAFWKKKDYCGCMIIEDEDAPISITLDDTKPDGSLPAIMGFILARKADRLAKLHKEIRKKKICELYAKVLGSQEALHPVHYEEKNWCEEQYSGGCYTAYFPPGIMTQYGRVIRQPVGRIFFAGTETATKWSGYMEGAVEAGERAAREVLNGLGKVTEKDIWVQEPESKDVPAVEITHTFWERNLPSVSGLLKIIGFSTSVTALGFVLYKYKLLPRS
Procedure: (§2) Enzyme activity assays were performed according to the procedure reported by Matsumoto et al. with slight modifications. In order to prevent the destructive effect of light on MAO enzymes, the assays were performed in 96-well black plates. Phosphate buffer solution (0.1 M, pH = 7.4) was used for preparation of stock solutions (5 mg/mL) of both human recombinant MAO-A and MAO-B enzymes. […] The addition of the test compound solution was followed by addition of either MAO-A or MAO-B enzyme (50 μL/well) solutions. After 10 min of incubation at 37 °C, kynuramine (50 μL/well) was added and enzyme-substrate reaction was initiated. The plate was incubated for 20 min at 37 °C and then reaction was terminated by addition of 2 N NaOH (75 μL/well). The fluorimetric reads from the top was performed at 310 nm excitation and 380 nm emission wavelengths.

[6] = target: T4, human recombinant MAO-B (Homo sapiens, UniProt P27338); experiment: MAO inhibition assay (kynuramine, fluorimetric); assay type: biochemical
T4 sequence (P27338 1-520): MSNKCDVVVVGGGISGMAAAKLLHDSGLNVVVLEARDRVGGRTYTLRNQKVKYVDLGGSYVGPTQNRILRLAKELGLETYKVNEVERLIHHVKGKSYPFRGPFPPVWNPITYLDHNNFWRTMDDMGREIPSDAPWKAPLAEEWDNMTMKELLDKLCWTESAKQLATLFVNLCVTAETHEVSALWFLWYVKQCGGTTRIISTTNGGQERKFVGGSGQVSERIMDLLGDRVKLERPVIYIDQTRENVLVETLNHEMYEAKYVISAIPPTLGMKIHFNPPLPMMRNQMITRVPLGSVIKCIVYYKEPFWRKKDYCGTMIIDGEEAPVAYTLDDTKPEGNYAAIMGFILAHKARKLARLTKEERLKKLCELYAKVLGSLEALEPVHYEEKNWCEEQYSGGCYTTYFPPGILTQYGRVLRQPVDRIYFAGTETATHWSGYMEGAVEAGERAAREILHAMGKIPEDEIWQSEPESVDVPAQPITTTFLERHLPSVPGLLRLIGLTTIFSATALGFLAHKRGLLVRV
Procedure: as §2

T1 sequence (P05979 25-600): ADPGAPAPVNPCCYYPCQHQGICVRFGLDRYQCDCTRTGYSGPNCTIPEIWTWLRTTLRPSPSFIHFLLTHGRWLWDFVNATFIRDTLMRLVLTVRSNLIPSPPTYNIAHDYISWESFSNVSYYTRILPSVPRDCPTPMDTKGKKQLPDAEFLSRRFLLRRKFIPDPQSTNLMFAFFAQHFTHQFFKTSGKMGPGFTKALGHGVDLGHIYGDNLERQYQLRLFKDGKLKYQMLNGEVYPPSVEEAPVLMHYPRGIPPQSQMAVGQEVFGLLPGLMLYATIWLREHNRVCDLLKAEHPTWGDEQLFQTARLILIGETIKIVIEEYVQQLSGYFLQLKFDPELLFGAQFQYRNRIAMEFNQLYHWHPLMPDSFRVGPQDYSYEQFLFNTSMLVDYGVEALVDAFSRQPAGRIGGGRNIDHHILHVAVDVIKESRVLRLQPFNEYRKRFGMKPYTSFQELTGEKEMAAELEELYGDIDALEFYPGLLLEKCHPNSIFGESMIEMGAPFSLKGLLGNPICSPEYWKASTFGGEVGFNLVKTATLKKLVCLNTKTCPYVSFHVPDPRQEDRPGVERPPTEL
AChE, sequence (P22303 32-614): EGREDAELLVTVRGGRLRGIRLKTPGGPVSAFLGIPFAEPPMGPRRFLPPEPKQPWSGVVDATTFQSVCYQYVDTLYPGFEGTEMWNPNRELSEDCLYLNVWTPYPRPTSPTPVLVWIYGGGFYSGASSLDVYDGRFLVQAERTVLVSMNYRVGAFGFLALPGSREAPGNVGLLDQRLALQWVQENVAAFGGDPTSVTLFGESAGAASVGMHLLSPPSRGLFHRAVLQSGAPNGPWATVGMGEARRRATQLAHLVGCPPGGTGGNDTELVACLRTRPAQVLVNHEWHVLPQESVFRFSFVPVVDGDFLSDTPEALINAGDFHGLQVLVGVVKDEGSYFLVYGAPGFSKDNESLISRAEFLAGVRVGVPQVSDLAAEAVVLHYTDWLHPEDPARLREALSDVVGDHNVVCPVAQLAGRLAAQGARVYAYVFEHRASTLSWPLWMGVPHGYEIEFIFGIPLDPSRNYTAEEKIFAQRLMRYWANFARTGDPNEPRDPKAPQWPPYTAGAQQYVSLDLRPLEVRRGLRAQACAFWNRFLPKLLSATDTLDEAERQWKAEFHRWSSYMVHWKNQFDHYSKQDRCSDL

Row | Compound | MIC50 [1] [µg/mL] | COX-1 Inhibition (%) ([2]; 10^-3 M) | COX-1 Inhibition (%) ([2]; 10^-4 M) | COX-2 Inhibition (%) ([3]; 10^-3 M) | COX-2 Inhibition (%) ([3]; 10^-4 M) | AChE Inhibition (%) ([4]; 10^-3 M) | AChE Inhibition (%) ([4]; 10^-4 M) | MAO-A Inhibition (%) ([5]; 10^-3 M) | MAO-A Inhibition (%) ([5]; 10^-4 M) | MAO-B Inhibition (%) ([6]; 10^-3 M) | MAO-B Inhibition (%) ([6]; 10^-4 M)
1 | O=C(N[C@H](CO)[C@H](O)c1ccc([N+](=O)[O-])cc1)C(Cl)Cl [Chloramphenicol, reference compound] | 250 (≈ 774 µM) | – | – | – | – | – | – | – | – | – | –
2 | FC(F)(F)c1ccc(-c2nc3ccccc3n2CCN2CCOCC2)cc1 [Compound 2l, 2-(4-Trifluoromethylphenyl)-1-[2-(morpholin-4-yl)ethyl]-1H-benzimidazole] | – | 36.87 | 33.46 | 21.00 | 34.62 | 33.88 | 33.88 | 38.51 | 30.16 | 47.66 | 38.09
3 | CSc1ccc(-c2nc3ccccc3n2CCN2CCOCC2)cc1 [Compound 2n, 2-(4-Methylthiophenyl)-1-[2-(morpholin-4-yl)ethyl]-1H-benzimidazole] | – | 39.42 | 32.78 | 30.08 | 33.46 | 12.21 | 12.21 | 32.73 | 24.05 | 34.75 | 32.24
4 | c1ccc(-c2ccc(-c3nc4ccccc4n3CCN3CCOCC3)cc2)cc1 [Compound 2o, 2-(1,1’-Biphenyl)-1-[2-(morpholin-4-yl)ethyl]-1H-benzimidazole] | – | 27.63 | 34.00 | 30.76 | 21.48 | 6.33 | 6.33 | 31.85 | 26.19 | 31.12 | 23.54
